The target in the assay is Proto-oncogene tyrosine-protein kinase Src (Homo sapiens, UniProt P12931). The assay can be described thus: Homogeneous Time-resolved Fluorescence (HTRF) Assay. As to conditions: pH 7.5; 37 °C. The protocol:
Kinase assays were performed using the europium/APC detection format (LANCE, Perkin Elmer). HTRF is based on the proximity of europium cryptate (donor fluorophore)-labeled antiphosphotyrosine and streptavidin labeled with APC(allophycocyanin), which have been brought together by a binding reaction. When the two entities come into close proximity and upon excitation, energy transfer occurs and APC re-emits at 665 nm.

SMILES strings stand for the structures. A value given as a limit tells only on which side of the number the result lay.

Chain of Proto-oncogene tyrosine-protein kinase Src (P12931 2-536 limits assumed): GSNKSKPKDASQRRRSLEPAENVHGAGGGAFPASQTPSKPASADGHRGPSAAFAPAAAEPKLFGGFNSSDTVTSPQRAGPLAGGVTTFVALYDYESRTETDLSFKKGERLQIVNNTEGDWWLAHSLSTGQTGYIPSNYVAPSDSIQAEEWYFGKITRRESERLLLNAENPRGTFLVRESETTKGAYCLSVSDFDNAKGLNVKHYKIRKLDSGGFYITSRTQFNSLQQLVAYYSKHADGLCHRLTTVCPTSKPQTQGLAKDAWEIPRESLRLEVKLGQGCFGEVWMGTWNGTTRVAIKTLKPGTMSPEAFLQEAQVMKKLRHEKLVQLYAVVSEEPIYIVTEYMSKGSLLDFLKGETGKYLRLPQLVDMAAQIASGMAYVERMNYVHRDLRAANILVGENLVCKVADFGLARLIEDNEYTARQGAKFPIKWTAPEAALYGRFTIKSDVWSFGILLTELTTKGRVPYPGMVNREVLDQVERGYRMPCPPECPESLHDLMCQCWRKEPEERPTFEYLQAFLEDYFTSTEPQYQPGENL

As for `COc1cc(Nc2c(C#N)cnc3cc(-c4ccccc4CN4CCN(C)CC4)sc23)c(Cl)cc1Cl` [7-[(2,4-dichloro-5-methoxyphenyl)amino]-2-{2-[(4-methylpiperazin-1-yl)methyl]phenyl}thieno[3,2-b]pyridine-6-carbonitrile], the IC50 is more than 10 µM.

The record behind these values is BindingDB's records for doi:10.1021/jm049237m (Wyeth Research, 2004).
